Assay results taken from ChEMBL document CHEMBL3885861, “Open TG-GATES”.

Species: Rattus norvegicus
Assay: Open TG-GATES - Regimen: Single
Type: toxicity, organism-based, Sprague-Dawley
Set-up: regimen Single, gender Male, age 6 weeks
Conditions: in vivo, po, route gavage; for APTT / Bas / Eos / Fbg / Hb / Ht / Lym / MCH / MCHC / MCV / Mono / Neu / PT / Plat / RBC / Ret / WBC: tissue Blood; for KIDNEY_L / KIDNEY_R / KIDNEY_TOTAL: tissue Kidney; for LIVER: tissue Liver; for A/G / ALP / ALT / AST / BUN / CRE / Ca / Cl / DBIL / GLC / IP / K / LDH / Na / PL / RALB / TBIL / TC / TG / TP / gamma-GTP: tissue Plasma
[1] = 600 mg/kg, 3 h, dose level Middle
[2] = 600 mg/kg, 6 h, dose level Middle
[3] = 600 mg/kg, 9 h, dose level Middle
[4] = 600 mg/kg, 24 h, dose level Middle
[5] = 2000 mg/kg, 3 h, dose level High
[6] = 2000 mg/kg, 6 h, dose level High
[7] = 2000 mg/kg, 9 h, dose level High
[8] = 2000 mg/kg, 24 h, dose level High

NNC(=O)c1ccncc1 [ISONIAZID]
TERMINAL_BW [1]: 221.5 g
APTT [1]: 19.8 s
Bas [1]: 0%
Eos [1]: 1%
Fbg [1]: 231 mg/dL
Hb [1]: 13.7 g/dL
Ht [1]: 37.8%
Lym [1]: 72.6%
MCH [1]: 22 pg
MCHC [1]: 36.2%
MCV [1]: 60.8 fL
Mono [1]: 2.4%
Neu [1]: 23.2%
PT [1]: 12.2 s
Plat [1]: 125.7 x10_4/uL
RBC [1]: 622.4 x10_4/ul
Ret [1]: 7.4%
WBC [1]: 67.3 x10_2/uL
KIDNEY_L [1]: 0.9 g
KIDNEY_R [1]: 0.9 g
KIDNEY_TOTAL [1]: 1.9 g
LIVER [1]: 9.6 g
A/G [1]: 1.7
ALP [1]: 950 IU/L
ALT [1]: 39.6 IU/L
AST [1]: 73.6 IU/L
BUN [1]: 9 mg/dL
CRE [1]: 0.4 mg/dL
Ca [1]: 10.3 mg/dL
Cl [1]: 104 meq/L
DBIL [1]: 0.064 mg/dL
GLC [1]: 197.6 mg/dL
IP [1]: 10 mg/dL
K [1]: 3.7 meq/L
LDH [1]: 177.2 IU/L
Na [1]: 141.4 meq/L
PL [1]: 134.8 mg/dL
RALB [1]: 3.6 g/dL
TBIL [1]: 0.1 mg/dL
TC [1]: 78.2 mg/dL
TG [1]: 49.6 mg/dL
TP [1]: 5.7 g/dL
gamma-GTP [1]: 1 IU/L
TERMINAL_BW [2]: 219.2 g
APTT [2]: 18.4 s
Bas [2]: 0%
Eos [2]: 0.8%
Fbg [2]: 223.4 mg/dL
Hb [2]: 13.6 g/dL
Ht [2]: 37.9%
Lym [2]: 78.8%
MCH [2]: 22 pg
MCHC [2]: 36%
MCV [2]: 61.3 fL
Mono [2]: 1.8%
Neu [2]: 17.6%
PT [2]: 12.2 s
Plat [2]: 133.3 x10_4/uL
RBC [2]: 619 x10_4/ul
Ret [2]: 7.6%
WBC [2]: 75.7 x10_2/uL
KIDNEY_L [2]: 1 g
KIDNEY_R [2]: 1 g
KIDNEY_TOTAL [2]: 1.9 g
LIVER [2]: 9.6 g
A/G [2]: 1.6
ALP [2]: 838.6 IU/L
ALT [2]: 27.6 IU/L
AST [2]: 52.2 IU/L
BUN [2]: 9.4 mg/dL
CRE [2]: 0.4 mg/dL
Ca [2]: 10.3 mg/dL
Cl [2]: 104.6 meq/L
DBIL [2]: 0.066 mg/dL
GLC [2]: 210 mg/dL
IP [2]: 9.3 mg/dL
K [2]: 3.6 meq/L
LDH [2]: 202.8 IU/L
Na [2]: 142.8 meq/L
PL [2]: 142.2 mg/dL
RALB [2]: 3.5 g/dL
TBIL [2]: 0.1 mg/dL
TC [2]: 71 mg/dL
TG [2]: 90.4 mg/dL
TP [2]: 5.8 g/dL
gamma-GTP [2]: 1 IU/L
TERMINAL_BW [3]: 219.9 g
APTT [3]: 17.5 s
Bas [3]: 0%
Eos [3]: 0.8%
Fbg [3]: 222.8 mg/dL
Hb [3]: 13.5 g/dL
Ht [3]: 37.4%
Lym [3]: 70.6%
MCH [3]: 21.9 pg
MCHC [3]: 36.1%
MCV [3]: 60.6 fL
Mono [3]: 1.6%
Neu [3]: 26%
PT [3]: 12.3 s
Plat [3]: 116 x10_4/uL
RBC [3]: 616.6 x10_4/ul
Ret [3]: 7.1%
WBC [3]: 71.5 x10_2/uL
KIDNEY_L [3]: 1 g
KIDNEY_R [3]: 1 g
KIDNEY_TOTAL [3]: 2 g
LIVER [3]: 8.8 g
A/G [3]: 1.5
ALP [3]: 752.2 IU/L
ALT [3]: 23.2 IU/L
AST [3]: 44.6 IU/L
BUN [3]: 7.8 mg/dL
CRE [3]: 0.4 mg/dL
Ca [3]: 10.3 mg/dL
Cl [3]: 105 meq/L
DBIL [3]: 0.066 mg/dL
GLC [3]: 200.6 mg/dL
IP [3]: 9 mg/dL
K [3]: 3.8 meq/L
LDH [3]: 203.6 IU/L
Na [3]: 142.6 meq/L
PL [3]: 152.8 mg/dL
RALB [3]: 3.4 g/dL
TBIL [3]: 0.1 mg/dL
TC [3]: 78.2 mg/dL
TG [3]: 74.6 mg/dL
TP [3]: 5.7 g/dL
gamma-GTP [3]: 1 IU/L
TERMINAL_BW [4]: 215.6 g
APTT [4]: 19.7 s
Bas [4]: 0.4%
Eos [4]: 0.8%
Fbg [4]: 218.6 mg/dL
Hb [4]: 14.5 g/dL
Ht [4]: 39.6%
Lym [4]: 86.4%
MCH [4]: 22.4 pg
MCHC [4]: 36.7%
MCV [4]: 61 fL
Mono [4]: 2.4%
Neu [4]: 8.8%
PT [4]: 12.9 s
Plat [4]: 139.5 x10_4/uL
RBC [4]: 649.2 x10_4/ul
Ret [4]: 3.7%
WBC [4]: 85.9 x10_2/uL
KIDNEY_L [4]: 1 g
KIDNEY_R [4]: 1 g
KIDNEY_TOTAL [4]: 2.1 g
LIVER [4]: 9.8 g
A/G [4]: 1.7
ALP [4]: 817.6 IU/L
ALT [4]: 15.2 IU/L
AST [4]: 32.2 IU/L
BUN [4]: 17.8 mg/dL
CRE [4]: 0.4 mg/dL
Ca [4]: 10.6 mg/dL
Cl [4]: 104.4 meq/L
DBIL [4]: 0.06 mg/dL
GLC [4]: 189.2 mg/dL
IP [4]: 8.9 mg/dL
K [4]: 3.9 meq/L
LDH [4]: 202.4 IU/L
Na [4]: 143.4 meq/L
PL [4]: 123.2 mg/dL
RALB [4]: 3.6 g/dL
TBIL [4]: 0.1 mg/dL
TC [4]: 58.6 mg/dL
TG [4]: 69.6 mg/dL
TP [4]: 5.7 g/dL
gamma-GTP [4]: 1 IU/L
TERMINAL_BW [5]: 221 g
APTT [5]: 20.8 s
Bas [5]: 0%
Eos [5]: 1.2%
Fbg [5]: 218.2 mg/dL
Hb [5]: 13.8 g/dL
Ht [5]: 38.4%
Lym [5]: 73.8%
MCH [5]: 22.2 pg
MCHC [5]: 36%
MCV [5]: 61.7 fL
Mono [5]: 2%
Neu [5]: 22.2%
PT [5]: 12.3 s
Plat [5]: 117.2 x10_4/uL
RBC [5]: 621.8 x10_4/ul
Ret [5]: 7.9%
WBC [5]: 51.3 x10_2/uL
KIDNEY_L [5]: 1 g
KIDNEY_R [5]: 1 g
KIDNEY_TOTAL [5]: 1.9 g
LIVER [5]: 9.8 g
A/G [5]: 1.7
ALP [5]: 760.4 IU/L
ALT [5]: 31.4 IU/L
AST [5]: 66.4 IU/L
BUN [5]: 8.8 mg/dL
CRE [5]: 0.4 mg/dL
Ca [5]: 10.4 mg/dL
Cl [5]: 102.4 meq/L
DBIL [5]: 0.062 mg/dL
GLC [5]: 221.8 mg/dL
IP [5]: 10.2 mg/dL
K [5]: 4 meq/L
LDH [5]: 231.8 IU/L
Na [5]: 141.2 meq/L
PL [5]: 136 mg/dL
RALB [5]: 3.6 g/dL
TBIL [5]: 0.1 mg/dL
TC [5]: 72.8 mg/dL
TG [5]: 58.8 mg/dL
TP [5]: 5.7 g/dL
gamma-GTP [5]: 0.8 IU/L
TERMINAL_BW [6]: 217.4 g
APTT [6]: 19.1 s
Bas [6]: 0%
Eos [6]: 0.8%
Fbg [6]: 231 mg/dL
Hb [6]: 13.7 g/dL
Ht [6]: 38.1%
Lym [6]: 68.4%
MCH [6]: 22 pg
MCHC [6]: 36%
MCV [6]: 61 fL
Mono [6]: 1.6%
Neu [6]: 28.2%
PT [6]: 12.2 s
Plat [6]: 128.8 x10_4/uL
RBC [6]: 625.4 x10_4/ul
Ret [6]: 8.1%
WBC [6]: 60.7 x10_2/uL
KIDNEY_L [6]: 1 g
KIDNEY_R [6]: 1 g
KIDNEY_TOTAL [6]: 1.9 g
LIVER [6]: 9.6 g
A/G [6]: 1.5
ALP [6]: 774.2 IU/L
ALT [6]: 27.8 IU/L
AST [6]: 43.8 IU/L
BUN [6]: 8.8 mg/dL
CRE [6]: 0.5 mg/dL
Ca [6]: 10.4 mg/dL
Cl [6]: 104.2 meq/L
DBIL [6]: 0.062 mg/dL
GLC [6]: 222.4 mg/dL
IP [6]: 9.2 mg/dL
K [6]: 3.7 meq/L
LDH [6]: 185.6 IU/L
Na [6]: 141.8 meq/L
PL [6]: 151.2 mg/dL
RALB [6]: 3.5 g/dL
TBIL [6]: 0.1 mg/dL
TC [6]: 78.2 mg/dL
TG [6]: 47.8 mg/dL
TP [6]: 5.9 g/dL
gamma-GTP [6]: 1 IU/L
TERMINAL_BW [7]: 217 g
APTT [7]: 18.6 s
Bas [7]: 0.2%
Eos [7]: 1%
Fbg [7]: 230 mg/dL
Hb [7]: 14 g/dL
Ht [7]: 38.5%
Lym [7]: 70.4%
MCH [7]: 21.7 pg
MCHC [7]: 36.3%
MCV [7]: 59.8 fL
Mono [7]: 1.8%
Neu [7]: 26%
PT [7]: 12.5 s
Plat [7]: 131.2 x10_4/uL
RBC [7]: 644 x10_4/ul
Ret [7]: 7%
WBC [7]: 61.3 x10_2/uL
KIDNEY_L [7]: 1 g
KIDNEY_R [7]: 1 g
KIDNEY_TOTAL [7]: 2.1 g
LIVER [7]: 9 g
A/G [7]: 1.7
ALP [7]: 823.6 IU/L
ALT [7]: 23.8 IU/L
AST [7]: 40.8 IU/L
BUN [7]: 8.8 mg/dL
CRE [7]: 0.4 mg/dL
Ca [7]: 10.5 mg/dL
Cl [7]: 104 meq/L
DBIL [7]: 0.066 mg/dL
GLC [7]: 211 mg/dL
IP [7]: 9.2 mg/dL
K [7]: 3.6 meq/L
LDH [7]: 195.4 IU/L
Na [7]: 142.4 meq/L
PL [7]: 151.8 mg/dL
RALB [7]: 3.7 g/dL
TBIL [7]: 0.1 mg/dL
TC [7]: 76.2 mg/dL
TG [7]: 78 mg/dL
TP [7]: 5.9 g/dL
gamma-GTP [7]: 1 IU/L
TERMINAL_BW [8]: 212.5 g
APTT [8]: 18.8 s
Bas [8]: 0.2%
Eos [8]: 0.8%
Fbg [8]: 196 mg/dL
Hb [8]: 14.7 g/dL
Ht [8]: 40.4%
Lym [8]: 75.4%
MCH [8]: 22.4 pg
MCHC [8]: 36.4%
MCV [8]: 61.6 fL
Mono [8]: 3.4%
Neu [8]: 19.6%
PT [8]: 14.4 s
Plat [8]: 152.8 x10_4/uL
RBC [8]: 656.4 x10_4/ul
Ret [8]: 2.8%
WBC [8]: 41.4 x10_2/uL
KIDNEY_L [8]: 1.1 g
KIDNEY_R [8]: 1.1 g
KIDNEY_TOTAL [8]: 2.2 g
LIVER [8]: 9.5 g
A/G [8]: 1.8
ALP [8]: 761.4 IU/L
ALT [8]: 12 IU/L
AST [8]: 25.8 IU/L
BUN [8]: 14 mg/dL
CRE [8]: 0.5 mg/dL
Ca [8]: 10.1 mg/dL
Cl [8]: 103.8 meq/L
DBIL [8]: 0.06 mg/dL
GLC [8]: 205.4 mg/dL
IP [8]: 8.4 mg/dL
K [8]: 3.9 meq/L
LDH [8]: 203.8 IU/L
Na [8]: 143 meq/L
PL [8]: 114.2 mg/dL
RALB [8]: 3.5 g/dL
TBIL [8]: 0.1 mg/dL
TC [8]: 47 mg/dL
TG [8]: 90 mg/dL
TP [8]: 5.5 g/dL
gamma-GTP [8]: 0.8 IU/L
